For this test, the system named is L1210 leukemia ip in BDF1 mice, survival T/C. The test is described as follows: NCI In Vivo Anticancer Drug Screen. Data for tumor model L1210 Leukemia (intraperitoneal) in B6D2F1 (BDF1) mice. Conditions: endpoint: mean survival time, higher = longer survival. The gist of the method: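 Each compound was tested against a transplantable tumor grown in mice. The endpoint was survival, with treated animals benchmarked against vehicle controls as a simple ratio.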

The mark [1] stands for this setting: dose: 100.0 mg/kg/injection, schedule: Q01DX001 (ip), vehicle: saline.

SMILES strings stand for the structures. Values joined by “and” are separate entries in the source; they are usually repeats but may differ in a detail not shown here. Equal entries are not always repeated. Inconclusive results and toxic doses are left out.

As to `OCCOCCN1CCN(CCCN2c3ccccc3Sc3ccc(C(F)(F)F)cc32)CC1`, the T/C is 104 % of control (dose: 1.6 mg/kg/injection, schedule: Q01DX009 (ip), vehicle: saline); 117 % of control (dose: 6.25 mg/kg/injection, schedule: Q01DX009 (ip), vehicle: saline); 100 % of control (dose: 9.5 mg/kg/injection, schedule: Q01DX001 (ip), vehicle: saline); 93 % of control (dose: 12.5 mg/kg/injection, schedule: Q01DX009 (ip), vehicle: saline); 114 % of control and 124 % of control (dose: 12.5 mg/kg/injection, schedule: Q04DX003 (ip), vehicle: saline); 124 % of control (dose: 18.7 mg/kg/injection, schedule: Q04DX003 (ip), vehicle: saline). For the same compound, the T/C is, setting by setting: (dose: 18.75 mg/kg/injection, schedule: Q01DX009 (ip), vehicle: saline) 95 % of control; (dose: 19.0 mg/kg/injection, schedule: Q01DX001 (ip), vehicle: saline) 107 % of control; (dose: 25.0 mg/kg/injection, schedule: Q01DX009 (ip), vehicle: saline) 103 % of control; (dose: 25.0 mg/kg/injection, schedule: Q04DX003 (ip), vehicle: saline) 95 % of control and 118 % of control and 120 % of control; (dose: 33.0 mg/kg/injection, schedule: Q04DX003 (ip), vehicle: saline) 122 % of control; (dose: 38.0 mg/kg/injection, schedule: Q01DX001 (ip), vehicle: saline) 111 % of control. The T/C reads like this: (dose: 120.0 mg/kg/injection, schedule: Q04DX003 (ip), vehicle: saline) 150 % of control; (dose: 150.0 mg/kg/injection, schedule: Q04DX003 (ip), vehicle: saline) 118 % of control; (dose: 1.5 micrograms/kg/injection, schedule: Q01DX009 (ip), vehicle: saline) 95 % of control; (dose: 3.1 micrograms/kg/injection, schedule: Q01DX009 (ip), vehicle: saline) 106 % of control; (dose: 6.2 micrograms/kg/injection, schedule: Q01DX009 (ip), vehicle: saline) 95 % of control; (dose: 12.5 micrograms/kg/injection, schedule: Q01DX009 (ip), vehicle: saline) 93 % of control. In addition, the T/C (dose: 25.0 micrograms/kg/injection, schedule: Q01DX009 (ip), vehicle: saline) was 103 % of control; the T/C (dose: 50.0 micrograms/kg/injection, schedule: Q01DX009 (ip), vehicle: saline) is 87 % of control; the T/C (dose: 100.0 micrograms/kg/injection, schedule: Q01DX009 (ip), vehicle: saline) was 103 % of control; the T/C (dose: 200.0 micrograms/kg/injection, schedule: Q01DX009 (ip), vehicle: saline) was 103 % of control.
Regarding `CC(=O)Nc1ccc(S(=O)(=O)C2=CC(=O)c3ccccc3C2=O)cc1`, the T/C under setting [1] is 95 % of control.
As for `COc1cccc(/C=N/NC(=O)CNC(=O)Nc2cccc([N+](=O)[O-])c2)c1OC`, the T/C by setting is: (dose: 50.0 mg/kg/injection, schedule: Q01DX009 (ip), vehicle: saline with Tween-80) 89 % of control; (dose: 100.0 mg/kg/injection, schedule: Q01DX009 (ip), vehicle: saline with Tween-80) 96 % of control; (dose: 200.0 mg/kg/injection, schedule: Q01DX009 (ip), vehicle: saline with Tween-80) 89 % of control.
In the case of `CCCCCC#CC(=O)OCCC`, the T/C reads like this: (dose: 100.0 mg/kg/injection, schedule: Q04DX002 (ip), vehicle: Klucel (hydroxypropylcellulose) (HPC)) 97 % of control; (dose: 200.0 mg/kg/injection, schedule: Q04DX002 (ip), vehicle: Klucel (hydroxypropylcellulose) (HPC)) 101 % of control; (dose: 400.0 mg/kg/injection, schedule: Q04DX002 (ip), vehicle: Klucel (hydroxypropylcellulose) (HPC)) 101 % of control.
For `CC(=O)C12OC1(C)CC1C3CC=C4CC(O)CCC4(C)C3CCC12C` (stereo not drawn), the T/C (dose: 100.0 mg/kg/injection, schedule: Q01DX009 (sc), vehicle: steriod suspending solution) is 100 % of control; the T/C (dose: 100.0 mg/kg/injection, schedule: Q04DX003 (sc), vehicle: steriod suspending solution) was 108 % of control; the T/C (dose: 200.0 mg/kg/injection, schedule: Q01DX009 (sc), vehicle: steriod suspending solution) is 109 % of control; the T/C (dose: 200.0 mg/kg/injection, schedule: Q04DX003 (sc), vehicle: steriod suspending solution) is 122 % of control; the T/C (dose: 400.0 mg/kg/injection, schedule: Q01DX009 (sc), vehicle: steriod suspending solution) is 98 % of control; the T/C (dose: 400.0 mg/kg/injection, schedule: Q04DX003 (sc), vehicle: steriod suspending solution) is 103 % of control.
On to `CCN(CC)CCCC(C)NC/C=C/CNC(C)CCCN(CC)CC` (stereo not drawn), for which the T/C was 104 % of control (dose: 0.78 mg/kg/injection, schedule: Q01DX009 (ip), vehicle: water); 105 % of control (dose: 6.25 mg/kg/injection, schedule: Q04DX003 (ip), vehicle: water); 92 % of control (dose: 12.5 mg/kg/injection, schedule: Q04DX003 (ip), vehicle: water); 104 % of control (dose: 25.0 mg/kg/injection, schedule: Q01DX009 (ip), vehicle: water); 103 % of control (dose: 25.0 mg/kg/injection, schedule: Q04DX003 (ip), vehicle: water).
Consider `CCOC(OCC)c1cc(=O)[nH]c(NC(C)=O)n1`, for which the T/C (dose: 100.0 mg/kg/injection, schedule: Q01DX009 (ip), vehicle: Klucel (hydroxypropylcellulose) (HPC)) was 101 % of control; the T/C (dose: 200.0 mg/kg/injection, schedule: Q01DX009 (ip), vehicle: Klucel (hydroxypropylcellulose) (HPC)) is 101 % of control; the T/C (dose: 400.0 mg/kg/injection, schedule: Q01DX009 (ip), vehicle: Klucel (hydroxypropylcellulose) (HPC)) is 106 % of control.
Consider `COc1cccc2c1C(=O)c1c(O)c3c(c(O)c1C2=O)C[C@@](O)(/C(C)=N/N1CCCCC1)C[C@@H]3OC1CC(N)C(O)C(C)O1` (stereo partly drawn), for which the T/C by setting is: (dose: 0.12 mg/kg/injection, schedule: Q01DX009 (ip), vehicle: water) 114 % of control; (dose: 0.25 mg/kg/injection, schedule: Q01DX009 (ip), vehicle: water) 113 % of control; (dose: 0.25 mg/kg/injection, schedule: Q04DX003 (ip), vehicle: water) 110 % of control; (dose: 0.5 mg/kg/injection, schedule: Q01DX009 (ip), vehicle: water) 117 % of control; (dose: 0.5 mg/kg/injection, schedule: Q04DX003 (ip), vehicle: water) 118 % of control; (dose: 1.0 mg/kg/injection, schedule: Q04DX003 (ip), vehicle: water) 116 % of control. Further, the T/C is, setting by setting: (dose: 2.0 mg/kg/injection, schedule: Q01DX009 (ip), vehicle: water) 119 % of control; (dose: 3.12 mg/kg/injection, schedule: Q01DX009 (ip), vehicle: saline with Tween-80) 150 % of control; (dose: 4.0 mg/kg/injection, schedule: Q01DX009 (ip), vehicle: water) 114 % of control and 88 % of control; (dose: 6.25 mg/kg/injection, schedule: Q01DX009 (ip), vehicle: saline with Tween-80) 123 % of control; (dose: 16.0 mg/kg/injection, schedule: Q04DX003 (ip), vehicle: water) 86 % of control.
In the case of `CCCCCCCCCCCCCCCCNC(=O)C[N+](C)(C)Cc1ccccc1`, the T/C by setting is: (dose: 2.5 mg/kg/injection, schedule: Q01DX009 (ip), vehicle: saline with Tween-80) 101 % of control; (dose: 5.0 mg/kg/injection, schedule: Q01DX009 (ip), vehicle: saline with Tween-80) 98 % of control.
Consider `CC(C)N1CSC(=S)N(C(C)C)C1`, for which the T/C was 89 % of control (dose: 100.0 mg/kg/injection, schedule: Q04DX002 (ip), vehicle: other); 100 % of control (dose: 200.0 mg/kg/injection, schedule: Q04DX002 (ip), vehicle: other); 107 % of control (dose: 400.0 mg/kg/injection, schedule: Q04DX002 (ip), vehicle: other).
Take `Cc1ccc(OCCC(=O)O)cc1`: the T/C is, setting by setting: (dose: 100.0 mg/kg/injection, schedule: Q04DX002 (ip), vehicle: saline) 108 % of control; (dose: 200.0 mg/kg/injection, schedule: Q04DX002 (ip), vehicle: saline) 101 % of control; (dose: 400.0 mg/kg/injection, schedule: Q04DX002 (ip), vehicle: saline) 108 % of control.
Turning to `Nc1cc(S(=O)(=O)O)cc2ccccc12`, the T/C is 92 % of control under setting [1]; 92 % of control (dose: 200.0 mg/kg/injection, schedule: Q01DX001 (ip), vehicle: saline); 87 % of control (dose: 400.0 mg/kg/injection, schedule: Q01DX001 (ip), vehicle: saline).
For `COC1=CCC23C(=O)C=CC(=O)C2(C1)C(=O)c1ccccc1C3=O` (stereo not drawn), the T/C runs as follows: (dose: 3.12 mg/kg/injection, schedule: Q01DX005 (ip), vehicle: saline with Tween-80) 110 % of control; (dose: 6.25 mg/kg/injection, schedule: Q01DX005 (ip), vehicle: saline with Tween-80) 103 % of control; (dose: 12.5 mg/kg/injection, schedule: Q01DX005 (ip), vehicle: saline with Tween-80) 97 % of control.

The values above are taken from PubChem BioAssay AID248 (DTP/NCI, 2004).
